One experiment deals with HepG2. Briefly: cells. Format: functional, cell-based. To be noted: Homo sapiens, HepG2, 48 h.
Another experiment relates to A549. As to the kind of experiment: cells. Format: functional, cell-based. The following applies: Homo sapiens, A549, 48 h.
The next experiment relates to HCT-116. As to the kind of experiment: cells. The following applies: Homo sapiens, HCT-116, 48 h. Format: functional, cell-based.
A further experiment has as its system PC-3. As to the kind of experiment: cells. Format: functional, cell-based. The following applies: Homo sapiens, PC-3, 48 h.
A further experiment has as its target Histone deacetylase. Format: protein assay, Homo sapiens. To be noted: hela.
The species named for experiment [1] is Homo sapiens. Briefly: Selectivity ratio of IC50 for human recombinant HDAC4 to human recombinant HDAC6.
The species named for experiment [2] is Homo sapiens. Briefly: Selectivity ratio of IC50 for human recombinant HDAC1 to human recombinant HDAC6.
Another experiment concerns the target Histone deacetylase 4 (Homo sapiens, UniProt P56524). Briefly: Inhibition of human recombinant HDAC4 using p53 residues 379-382 (RHKKAc) as substrate.
For the next experiment, the target named is Histone deacetylase 1 (Homo sapiens, UniProt Q13547). As to the kind of experiment: Inhibition of human recombinant HDAC1 using p53 residues 379-382 (RHKKAc) as substrate.
Histone deacetylase 1, sequence (Q13547 whole entry, the tested form may be a part): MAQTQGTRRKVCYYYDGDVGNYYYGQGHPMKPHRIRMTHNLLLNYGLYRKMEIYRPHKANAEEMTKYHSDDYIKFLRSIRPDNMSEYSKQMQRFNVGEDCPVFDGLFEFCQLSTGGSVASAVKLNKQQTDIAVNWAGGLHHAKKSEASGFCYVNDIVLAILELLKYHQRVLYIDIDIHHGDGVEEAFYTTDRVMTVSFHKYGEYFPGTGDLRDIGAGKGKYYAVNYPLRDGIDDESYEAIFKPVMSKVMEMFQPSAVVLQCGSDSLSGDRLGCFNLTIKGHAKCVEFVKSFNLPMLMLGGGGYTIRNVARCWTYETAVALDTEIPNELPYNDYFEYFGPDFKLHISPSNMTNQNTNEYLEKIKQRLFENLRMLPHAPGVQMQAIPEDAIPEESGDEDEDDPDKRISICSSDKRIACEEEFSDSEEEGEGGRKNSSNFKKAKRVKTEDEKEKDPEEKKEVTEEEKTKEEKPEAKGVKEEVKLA
Experiment [3] addresses T1, Protein deacetylase HDAC6 (Homo sapiens, UniProt Q9UBN7).
T1 sequence (Q9UBN7 whole entry): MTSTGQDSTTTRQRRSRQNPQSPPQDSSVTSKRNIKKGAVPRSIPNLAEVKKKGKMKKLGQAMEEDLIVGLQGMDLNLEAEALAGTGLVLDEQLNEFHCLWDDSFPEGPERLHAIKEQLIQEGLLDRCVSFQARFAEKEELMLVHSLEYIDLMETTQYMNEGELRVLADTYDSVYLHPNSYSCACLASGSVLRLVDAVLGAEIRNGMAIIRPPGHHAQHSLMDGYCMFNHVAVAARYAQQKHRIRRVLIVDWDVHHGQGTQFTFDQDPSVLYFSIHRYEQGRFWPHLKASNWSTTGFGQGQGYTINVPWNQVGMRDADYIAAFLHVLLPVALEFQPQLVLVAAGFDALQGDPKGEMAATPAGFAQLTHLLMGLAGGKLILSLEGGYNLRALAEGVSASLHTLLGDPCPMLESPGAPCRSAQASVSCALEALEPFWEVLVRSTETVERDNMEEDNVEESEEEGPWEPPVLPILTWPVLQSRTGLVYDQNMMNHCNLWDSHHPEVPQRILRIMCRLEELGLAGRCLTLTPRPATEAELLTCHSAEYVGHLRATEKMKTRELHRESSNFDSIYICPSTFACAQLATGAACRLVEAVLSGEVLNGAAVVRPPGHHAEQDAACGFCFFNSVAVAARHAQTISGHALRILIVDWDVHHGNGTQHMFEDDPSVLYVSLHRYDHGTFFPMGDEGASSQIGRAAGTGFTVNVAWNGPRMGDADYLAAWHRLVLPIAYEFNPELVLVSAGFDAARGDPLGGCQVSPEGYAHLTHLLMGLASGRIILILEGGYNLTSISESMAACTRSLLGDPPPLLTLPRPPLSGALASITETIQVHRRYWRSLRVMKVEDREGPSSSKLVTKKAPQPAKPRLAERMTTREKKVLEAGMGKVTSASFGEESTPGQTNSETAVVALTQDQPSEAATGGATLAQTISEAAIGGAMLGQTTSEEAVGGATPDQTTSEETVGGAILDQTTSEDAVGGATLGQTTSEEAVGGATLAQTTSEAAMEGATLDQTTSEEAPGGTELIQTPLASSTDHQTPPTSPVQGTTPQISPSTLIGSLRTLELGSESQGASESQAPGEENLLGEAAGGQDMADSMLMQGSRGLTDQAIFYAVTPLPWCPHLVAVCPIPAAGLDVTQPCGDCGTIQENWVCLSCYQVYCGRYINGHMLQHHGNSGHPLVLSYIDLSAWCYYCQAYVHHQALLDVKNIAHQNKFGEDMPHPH

The EC50 is the midpoint of the concentration-response curve. In general, IC50 refers to the point on the concentration scale where inhibition reaches its midpoint.

Histone deacetylase 4, sequence (P56524 whole entry, the tested form may be a part): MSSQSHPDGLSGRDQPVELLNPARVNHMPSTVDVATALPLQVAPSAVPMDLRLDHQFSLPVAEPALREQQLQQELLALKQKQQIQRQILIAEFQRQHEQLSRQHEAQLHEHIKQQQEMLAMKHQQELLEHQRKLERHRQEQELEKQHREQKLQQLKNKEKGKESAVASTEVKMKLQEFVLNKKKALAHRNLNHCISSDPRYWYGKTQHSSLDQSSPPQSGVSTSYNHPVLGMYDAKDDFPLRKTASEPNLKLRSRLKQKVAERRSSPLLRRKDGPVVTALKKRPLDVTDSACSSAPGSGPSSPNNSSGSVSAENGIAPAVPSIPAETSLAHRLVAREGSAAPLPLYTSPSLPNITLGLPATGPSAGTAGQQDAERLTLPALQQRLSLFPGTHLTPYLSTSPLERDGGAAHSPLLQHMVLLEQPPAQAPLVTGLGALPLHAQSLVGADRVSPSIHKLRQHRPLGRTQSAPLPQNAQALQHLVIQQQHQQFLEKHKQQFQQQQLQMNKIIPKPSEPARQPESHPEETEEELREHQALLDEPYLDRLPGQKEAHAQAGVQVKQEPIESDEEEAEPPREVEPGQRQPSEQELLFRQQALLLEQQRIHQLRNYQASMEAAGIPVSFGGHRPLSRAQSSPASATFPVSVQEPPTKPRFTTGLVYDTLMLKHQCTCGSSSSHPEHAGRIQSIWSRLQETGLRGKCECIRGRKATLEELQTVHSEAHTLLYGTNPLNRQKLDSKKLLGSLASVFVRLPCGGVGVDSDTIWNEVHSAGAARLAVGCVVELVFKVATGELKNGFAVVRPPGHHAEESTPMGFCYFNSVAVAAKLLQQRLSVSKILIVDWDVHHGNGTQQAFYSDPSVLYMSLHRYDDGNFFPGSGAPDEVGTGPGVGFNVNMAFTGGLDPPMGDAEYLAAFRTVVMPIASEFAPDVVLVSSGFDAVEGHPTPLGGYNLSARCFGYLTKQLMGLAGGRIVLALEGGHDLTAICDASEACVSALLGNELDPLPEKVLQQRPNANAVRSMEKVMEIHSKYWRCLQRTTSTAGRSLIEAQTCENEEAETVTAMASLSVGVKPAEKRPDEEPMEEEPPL

On to `O=C(/C=C/c1ccc(CN(CCCCOc2ccccc2)Cc2ccc(-c3ccccc3)cc2)o1)NO`, for which the 50% effective concentration (EC50) in the experiment on HepG2 worked out at 32.9 µM; in the experiment on A549, 22.4 µM; with HCT-116 it was 2.76 µM; with PC-3, 23.6 µM. This molecule also showed a half-inhibitory concentration (IC50) at Histone deacetylase above 2.02 µM.
On the same counts, the results for `O=C(/C=C/c1ccc(CN(CCOc2ccccc2)Cc2ccc(-c3ccccc3)cc2)o1)NO` are 18.1 µM, 26.4 µM, 9.53 µM, 15.9 µM and 1.21 µM.
Take `Cc1ccc(OCCN(Cc2ccc(-c3ccccc3)cc2)Cc2ccc(/C=C/C(=O)NO)o2)cc1`: the results for the Ratio IC50 in the experiment listed under Homo sapiens [1] and in the experiment listed under Homo sapiens [2] were 7.95 and 3.59, respectively. Also, the IC50 on Histone deacetylase 4 came out at 9.07 µM; on Histone deacetylase 1, 4.09 µM; against Histone deacetylase it was 1.71 µM; in [3], 1.14 µM. Also, the concentration giving a half-maximal response (EC50) in the experiment on HepG2 was 19.4 µM; in the experiment with A549 it was 23 µM; with HCT-116, 6.93 µM; in the experiment on PC-3 it was 18.8 µM.
In the case of `O=C(/C=C/c1ccc(CN(CCCCOc2ccccc2)CCc2ccc3c(c2)OCO3)o1)NO`, the concentration giving a half-maximal response (EC50) with HepG2 is 97.7 µM; in the experiment on A549, 46.8 µM; in the experiment with HCT-116, 35.9 µM; in the experiment on PC-3 it was 15.5 µM. The molecule also gave an IC50 against Histone deacetylase of 1.57 µM.
Consider `Cc1ccc(OCCCN(Cc2ccc(-c3ccccc3)cc2)Cc2ccc(/C=C/C(=O)NO)o2)cc1`, for which the EC50 worked out at 11.7 µM in the experiment on HepG2, 11.5 µM in the experiment with A549, 2.22 µM in the experiment on HCT-116 and 18.1 µM with PC-3. At Histone deacetylase, this molecule returned a half-maximal inhibitory concentration (IC50) of 1.66 µM.
For the molecule `CCCCCCN(Cc1ccccc1)Cc1ccc(/C=C/C(=O)NO)o1`, the EC50 in the experiment on HepG2 is 21.8 µM; in the experiment on A549, 11 µM; in the experiment on HCT-116, 8.96 µM; with PC-3, 23.8 µM. In addition, the IC50 on Histone deacetylase came out at 2.65 µM.
For the molecule `CCCN(CCc1ccc2c(c1)OCO2)Cc1ccc(/C=C/C(=O)NO)o1`, the EC50 stood at 28.7 µM in the experiment with HepG2, 50.6 µM with A549, 15.9 µM with HCT-116 and 7.57 µM in the experiment with PC-3. At Histone deacetylase, this molecule gave an IC50 of 1.59 µM.
`CC(C)N(Cc1ccc(-c2ccccc2)cc1)Cc1ccc(/C=C/C(=O)NO)o1`: the EC50 in the experiment with HepG2 was 15.5 µM; in the experiment on A549 it was 15.6 µM; with HCT-116, 2.74 µM; with PC-3 it was 24.2 µM. For the same molecule, the IC50 against Histone deacetylase came out at 1.61 µM.
As to `O=C(/C=C/c1ccc(CN(Cc2ccccc2)Cc2ccc(-c3ccccc3)cc2)o1)NO`, the EC50 with HepG2 was determined as 66.6 µM; in the experiment with A549, 69.8 µM; in the experiment on HCT-116 it was 9.01 µM; with PC-3, 14.3 µM. The molecule further showed an IC50 at Histone deacetylase above 2.55 µM.
Take `CCCCCN(Cc1ccc(-c2ccccc2)cc1)Cc1ccc(/C=C/C(=O)NO)o1`: the concentration giving a half-maximal response (EC50) stood at 19.7 µM with HepG2, 14.7 µM with A549, 8.23 µM in the experiment on HCT-116 and 13.4 µM in the experiment with PC-3. The molecule also came in with an IC50 at Histone deacetylase above 2.39 µM.
Regarding `CC(C)CN(CCc1ccc2c(c1)OCO2)Cc1ccc(/C=C/C(=O)NO)o1`, the EC50 with HepG2 is 38 µM; in the experiment with A549 it was 39.3 µM; in the experiment on HCT-116 it was 17.1 µM; with PC-3 it was 16.1 µM. This molecule also displayed a 50% inhibitory concentration (IC50) against Histone deacetylase above 2.69 µM.
With `CCCCCCCCN(Cc1ccc(-c2ccccc2)cc1)Cc1ccc(/C=C/C(=O)NO)o1`, the EC50 in the experiment with HepG2 came out at 36.9 µM; in the experiment with A549, 28.8 µM; with HCT-116 it was 10.4 µM; with PC-3, 36.8 µM. This molecule returned an IC50 against Histone deacetylase above 2.17 µM.
Consider `O=C(/C=C/c1ccc(CN(CCCOc2ccccc2)CCc2ccc3c(c2)OCO3)o1)NO`, for which the EC50 came out at 110 µM with HepG2, 16.3 µM in the experiment with A549, 37.2 µM in the experiment on HCT-116 and 18.8 µM in the experiment with PC-3. On Histone deacetylase, the IC50 was above 2.22 µM.
For `O=C(/C=C/c1ccc(CN(CCCCOc2ccccc2)Cc2ccccc2)o1)NO`, the EC50 stood at 14.7 µM in the experiment on HepG2, 10.6 µM in the experiment with A549, 6.43 µM with HCT-116 and 35.9 µM with PC-3. At Histone deacetylase, this molecule had an IC50 of 2.12 µM.
Take `O=C(CCCCCCC(=O)Nc1ccc([C@H]2O[C@@H](CSc3nc(-c4ccccc4)c(-c4ccccc4)o3)C[C@@H](c3ccc(CO)cc3)O2)cc1)NO`: the Ratio IC50 in the experiment listed under Homo sapiens [2] is 7.
With `CCN(CCc1ccc2c(c1)OCO2)Cc1ccc(/C=C/C(=O)NO)o1`, the figures for the Ratio IC50 in the experiment filed under Homo sapiens [1] and in the experiment listed under Homo sapiens [2] were 41.9 and 16.6, respectively. In addition, the IC50 at Histone deacetylase 4 was 20 µM; on Histone deacetylase 1 it was 7.88 µM; against Histone deacetylase, 2.31 µM; in [3], 0.48 µM. The EC50 in the experiment on HepG2 is 81.7 µM; with A549, 84.7 µM; with HCT-116, 66 µM; in the experiment with PC-3, 66.5 µM.
For `Cc1ccc(OCCN(Cc2ccccc2)Cc2ccc(/C=C/C(=O)NO)o2)cc1`, the results for the Ratio IC50 in the experiment filed under Homo sapiens [1] and in the experiment filed under Homo sapiens [2] were 21.8 and 10, respectively. Further, the IC50 at Histone deacetylase 4 came out at 68.1 µM; at Histone deacetylase 1, 31.4 µM; on Histone deacetylase it was 1.87 µM; in [3], 3.13 µM. Also, the EC50 with HepG2 came to 13 µM; in the experiment on A549 it was 52.6 µM; in the experiment on HCT-116 it was 14.8 µM; with PC-3, 51.7 µM.
Regarding `CCCCN(CCc1ccc2c(c1)OCO2)Cc1ccc(/C=C/C(=O)NO)o1`, the EC50 was determined as 54.3 µM in the experiment on HepG2, 78.2 µM in the experiment on A549, 17 µM with HCT-116 and 33.2 µM in the experiment on PC-3. In addition, the IC50 against Histone deacetylase was above 2.69 µM.
For `Cc1ccc(OCCCCN(Cc2ccc(-c3ccccc3)cc2)Cc2ccc(/C=C/C(=O)NO)o2)cc1`, the EC50 was found to be 15.9 µM in the experiment with HepG2, 15.6 µM in the experiment with A549, 2.76 µM with HCT-116 and 37.6 µM with PC-3. This molecule also returned a half-inhibitory concentration (IC50) at Histone deacetylase above 1.96 µM.
Consider `Cc1ccc(OCCN(CCc2ccc3c(c2)OCO3)Cc2ccc(/C=C/C(=O)NO)o2)cc1`, for which the Ratio IC50 came out at 11.3 in the experiment listed under Homo sapiens [1] and 3.83 in the experiment listed under Homo sapiens [2]. Further, the IC50 was found to be 52.5 µM at Histone deacetylase 4, 17.8 µM at Histone deacetylase 1, 0.84 µM at Histone deacetylase and 4.65 µM in experiment [3]. Moreover, the EC50 with HepG2 is 66.7 µM; in the experiment with A549, 27 µM; in the experiment with HCT-116, 28.5 µM; in the experiment on PC-3, 18.7 µM.
Regarding `O=C(/C=C/c1ccc(CN(CCOc2ccccc2)CCc2ccc3c(c2)OCO3)o1)NO`, the EC50 came out at 68.3 µM in the experiment on HepG2, 37.4 µM with A549, 30.6 µM with HCT-116 and 23.7 µM in the experiment with PC-3. Also, the IC50 against Histone deacetylase amounted to 2.36 µM.
As for `O=C(/C=C/c1ccc(CN(CCO)CCc2ccc3c(c2)OCO3)o1)NO`, the concentration for a half-maximal effect (EC50) with HepG2 was 105 µM; in the experiment with A549 it was 87.9 µM; in the experiment with HCT-116 it was 69.5 µM; in the experiment with PC-3, 92.5 µM. This molecule gave an IC50 at Histone deacetylase of 0.4 µM.
Consider `O=C(/C=C/c1ccc(CN(CCc2ccc3c(c2)OCO3)Cc2ccccc2)o1)NO`, for which the 50% effective concentration (EC50) with HepG2 was determined as 73.2 µM; in the experiment with A549 it was 35.4 µM; in the experiment on HCT-116, 91.4 µM; with PC-3, 34.5 µM. This molecule also showed an IC50 at Histone deacetylase of 2.28 µM.
As to `CCCCCN(CCc1ccc2c(c1)OCO2)Cc1ccc(/C=C/C(=O)NO)o1`, the EC50 in the experiment with HepG2 stood at 65.3 µM; in the experiment with A549, 72.5 µM; with HCT-116 it was 74.8 µM; with PC-3, 37.1 µM. Further, at Histone deacetylase, the concentration for half-maximal inhibition (IC50) was found to be 3.49 µM.
In the case of `O=C(/C=C/c1ccc(CN(CCCOc2ccccc2)Cc2ccc(-c3ccccc3)cc2)o1)NO`, the EC50 in the experiment with HepG2 worked out at 12.7 µM; in the experiment with A549 it was 16.6 µM; with HCT-116, 2.05 µM; with PC-3, 25.2 µM. This molecule gave an IC50 at Histone deacetylase above 2.07 µM.

These data come from ChEMBL document CHEMBL2413039, “Novel N-hydroxyfurylacrylamide-based histone deacetylase (HDAC) inhibitors with branched CAP group (Part 2)” (Bioorg Med Chem, 2013).
